From patent EP0032748B1, “Thiophene derivatives” (UBE INDUSTRIES, LTD., priority 1980, dated 1981)
Read-outs that look alike come from different tables or passages of the source.

Legend:
[1] = tested on: paddy rice (variety: Asahi)
[2] = tested on: rice brown spot fungus (Cochliobolus miyabeanus); test: Test Example 2: control effect on paddy rice brown spot (spray on potted seedlings); conditions: Table 3, spray liquid 500 ppm, inoculation one day after spraying, lesions per leaf 5 days after inoculation
[3] = tested on: pear alternaria leaf spot fungus (Alternaria kikuchiana); assay type: in vivo; conditions: pear black spot; concentration of spray liquid 500 ppm; three days after the inoculation
[4] = tested on: pear (variety: Niju-seiki); conditions: concentration of spray liquid 500 ppm
Pellicularia sasakii = assay type: in vivo; conditions: Table 4, spray liquid 500 ppm, paddy rice sheath blight
paddy rice = conditions: Table 4, spray liquid 500 ppm
[5] = tested on: hariot (variety: Taisho Kintoki)
[6] = tested on: haricot sclerotinia rot (Sclerotinia sclerotiorum); test: Test Example 5: control effect on haricot sclerotinia rot (spray, detached leaflets); conditions: Table 6, spray liquid 200 ppm, lesion diameter 3 days after inoculation
Experimental: On the following day, the first trifoliate leaf was cut off and the each leaflet of trifoliate leaf were placed in a 15 cm petri dish kept under moist conditions by placing a wet filter paper thereon and were inoculated on the center portion of each leaflet with a fungus-containing agar segment obtained by perforating by means of a cork borer of 8 mm in diameter an edge of a colony of a haricot sclerotinia rot (Sclerotinia sclerotiorum) cultured previously at 20°C. for 2 days in PSA medium. Three days after inoculation, the lesion diameter formed was measured by means of slide calipers and the control value (%) was obtained according to the following equation.

Phytophthora infestans = assay type: in vivo
[7] = tested on: cucumber downy mildew fungus (Pseudoperonospora cubensis); assay type: in vivo; conditions: for Control value: Table 7, spray liquid 500 ppm, percent lesion area 5 days after inoculation
[8] = tested on: tomato (variety: Sekai-ichi)
[9] = tested on: cucumber (variety: Sagami Hanjiro)
rice brown spot fungus = test: Test Example 10: seed treatment against brown spot of rice (seed disinfection ratio); conditions: concentration 1000 ppm, seed immersion, 25 days after the seeding
rice seeds = test: Test Example 9: degree of phytotoxicity on rice after seed treatment (injury rating); conditions: concentration 1000 ppm
[10] = tested on: rice seeds (variety: Asominori); test: Test Example 10: degree of phytotoxicity on rice after seed treatment (injury rating); conditions: concentration 1000 ppm
Gibberella fujikuroi = test: Test Example 9: seed treatment against "Bakanae" disease of rice (seed disinfection ratio); conditions: concentration 1000 ppm, seed immersion at 15°C. for 24 hours, 32 days after the seeding
[11] = Table 3, spray liquid 500 ppm, paddy rice
[12] = Table 6, spray liquid 200 ppm, haricot

Structure (SMILES): OCCN1CN(CCO)CN(CCO)C1 [Triazine, reference compound]
- Degree of phytotoxicity [1, 11]: 0
- Control value [2]: 90%

Structure (SMILES): O=C1C2CC=CCC2C(=O)N1SC(Cl)(Cl)Cl (stereo not shown) [Captan, reference compound]
- Control value (%) [3]: 90%
- Degree of phytotoxicity [4]: 0

Structure (SMILES): CCOCCC(=O)Oc1c(C(=O)OCC)sc(C(=O)OCC)c1OC(=O)CCOCC [Compound No. 295, 3,4-Di(2'-ethoxyethylcarbonyloxy)-2,5-dicarbethoxy-thiophene]
- Control value (Pellicularia sasakii): 94%
- Degree of phytotoxicity (paddy rice): 0

Structure (SMILES): COC(=O)c1sc(C(=O)c2ccccc2)c(O)c1O [Compound No. 246, 3,4-Dihydroxy-2-carbomethoxy-5-benzoylthiophene]
- Degree of phytotoxicity [5, 12]: 0
- Control value [6]: 100%

Structure (SMILES): CCOC(=O)c1sc(C(=O)OCC)c(OC(=O)OC)c1OC(=O)OC [Compound No. 22, 3,4-Dimethoxycarbonyloxy-2,5-dicarbethoxythiophene]
- Control value (Phytophthora infestans; Table 5, spray liquid 500 ppm, tomato late blight, inoculation 3 days after spraying, observed 3 days after inoculation): 100%
- Control value [7]: 100%
- Degree of phytotoxicity [1, 11]: 0
- Degree of phytotoxicity ([8]; Table 5, spray liquid 500 ppm, tomato): 0
- Degree of phytotoxicity [5, 12]: 0
- Degree of phytotoxicity ([9]; Table 7, spray liquid 500 ppm): 0
- Control value [2]: 100%
- Control value [6]: 95%
- Seed disinfection ratio (%) (rice brown spot fungus): 100%
- Degree of phytotoxicity (rice seeds): 0
- Degree of phytotoxicity [10]: 0
- Seed disinfection ratio (%) (Gibberella fujikuroi): 97%

Structure (SMILES): CCOC(=O)c1sc(C#N)c(O)c1O [Compound No. 210, 3,4-Dihydroxy-2-cyano-5-carbethoxythiophene]
- Control value (%) [3]: 100%
- Degree of phytotoxicity [4]: 0

Structure (SMILES): CN(C)C(=S)SSC(=S)N(C)C [TMTD, reference compound]
- Seed disinfection ratio (%) (rice brown spot fungus): 51%
- Degree of phytotoxicity [10]: 0

Structure (SMILES): COCCOC(=O)c1sc(C(=O)OCCOC)c(OC(=O)COC)c1OC(=O)COC [Compound No. 170, 3,4-Di-methoxymethylcarbonyloxy-2,5-di-2'-methoxyethoxycarbonylthiophene]
- Control value [7]: 93%
- Degree of phytotoxicity ([9]; Table 7, spray liquid 500 ppm): 0

Structure (SMILES): N#Cc1c(Cl)c(Cl)c(Cl)c(C#N)c1Cl [TPN, reference compound]
- Control value (%) ([7]; concentration of spray liquid 500 ppm, five days after the inoculation): 100%
- Degree of phytotoxicity ([9]; concentration of spray liquid 500 ppm): 0

Structure (SMILES): CCOC(=O)c1sc(C(=O)c2ccccc2)c(OC(C)=O)c1OC(C)=O [Compound No. 249, 3,4-Diacetoxy-2-carbethoxy-5-benzoylthiophene]
- Degree of phytotoxicity [5, 12]: 0
- Control value [6]: 100%

Structure (SMILES): CCOC(=O)Oc1c(C#N)sc(C(=O)OCC)c1OC(=O)OCC [Compound No. 216, 3,4-Di-(ethoxycarbonyloxy)-2-cyano-5-carbethoxythiophene]
- Degree of phytotoxicity [5, 12]: 0
- Control value [6]: 75%
- Seed disinfection ratio (%) (rice brown spot fungus): 100%
- Degree of phytotoxicity [10]: 0

Structure (SMILES): CCOC(=O)c1sc(C#N)c(OC(=O)NC)c1OC(=O)NC [compound 213]
- Control value [7]: 100%
- Control value (%) [3]: 92%
- Degree of phytotoxicity ([9]; Table 7, spray liquid 500 ppm): 0
- Degree of phytotoxicity [4]: 0
- Seed disinfection ratio (%) (rice brown spot fungus): 94%
- Degree of phytotoxicity [10]: 0

Structure (SMILES): CCCOC(=O)c1sc(C(=O)OCCC)c(OC(C)=O)c1OC(C)=O [Compound No. 3, 3,4-Diacetoxy-2,5-di-n-propoxycarbonylthiopene]
- Control value (Phytophthora infestans; in vivo): 93%
- Degree of phytotoxicity ([1]; in vivo): 0
- Degree of phytotoxicity ([8]; in vivo): 0
- Degree of phytotoxicity ([5]; in vivo): 0
- Control value [2]: 100%
- Control value [6]: 100%
- Seed disinfection ratio (%) (rice brown spot fungus): 100%
- Degree of phytotoxicity (rice seeds): 0
- Degree of phytotoxicity [10]: 0
- Seed disinfection ratio (%) (Gibberella fujikuroi): 100%

Structure (SMILES): CCOC(=O)c1sc(C(=O)c2ccccc2)c(O)c1O [Compound No. 247, 3,4-Dihydroxy-2-carbethoxy-5-benzoylthiophene]
- Degree of phytotoxicity [5, 12]: 0
- Control value [6]: 100%

Structure (SMILES): CNC(=O)Oc1c(C#N)sc(C(=O)OC)c1OC(=O)NC [compound 207]
- Control value [7]: 100%
- Control value (%) [3]: 92%
- Degree of phytotoxicity ([9]; Table 7, spray liquid 500 ppm): 0
- Degree of phytotoxicity [4]: 0
- Seed disinfection ratio (%) (rice brown spot fungus): 96%
- Degree of phytotoxicity [10]: 0

Structure (SMILES): CCOC(=O)c1sc(C#N)c(OC(C)=O)c1OC(C)=O [Compound No. 212, 3,4-Di-acetoxy-2-cyano-5-carbethoxythiophene]
- Control value (%) [3]: 100%
- Degree of phytotoxicity [4]: 0

Structure (SMILES): CCOC(=O)c1sc(C(=O)OCC)c(OC(=O)c2cccs2)c1OC(=O)c1cccs1 [Compound No. 229, 3,4-Di-(2'-thenoyloxy)-2,5-dicarbethoxythiophene]
- Control value [7]: 100%
- Degree of phytotoxicity ([9]; Table 7, spray liquid 500 ppm): 0

Structure (SMILES): CCNC(=O)Oc1c(C#N)sc(C(=O)OC)c1OC(=O)NCC [Compound No. 208, 3,4-Di(N-ethylcarbamoyloxy)-2-cyano-5-methoxycarbonylthiophene]
- Control value [7]: 100%
- Control value (%) [3]: 78%
- Degree of phytotoxicity ([9]; Table 7, spray liquid 500 ppm): 0
- Degree of phytotoxicity [4]: 0
- Seed disinfection ratio (%) (rice brown spot fungus): 97%
- Degree of phytotoxicity [10]: 0

Structure (SMILES): CCOC(=O)c1sc(C(=O)c2ccc(C)cc2)c(OC(=O)N(C)C)c1OC(=O)N(C)C [Compound No. 287, 3,4-Di(N,N-dimethylcarbamoyloxy)-2-carbethoxy-5-(p-methylbenzoyl)-thiophene]
- Degree of phytotoxicity [5, 12]: 0
- Control value [6]: 90%

Structure (SMILES): CCOC(=O)c1sc(C(=O)c2ccccc2)c(OC(=O)OC)c1OC(=O)OC [Compound No. 252, 3,4-Di(methoxycarbonyloxy)-2-carbethoxy-5-benzoylthiophene]
- Degree of phytotoxicity [5, 12]: 0
- Control value [6]: 90%

Structure (SMILES): CCOC(=O)c1sc(C(=O)OCC)c(OC(=O)NC)c1OC(=O)NC [Compound No. 50, 3,4-Bis(N-methylcarbamoyloxy)-2,5-dicarbethoxy-thiophene]
- Control value [7]: 100%
- Degree of phytotoxicity [1, 11]: 0
- Degree of phytotoxicity ([9]; Table 7, spray liquid 500 ppm): 0
- Control value [2]: 100%
- Seed disinfection ratio (%) (rice brown spot fungus): 100%
- Degree of phytotoxicity (rice seeds): 0
- Degree of phytotoxicity [10]: 0
- Seed disinfection ratio (%) (Gibberella fujikuroi): 100%

Structure (SMILES): COC(=O)Oc1c(C(=O)OCc2ccccc2)sc(C(=O)OCc2ccccc2)c1OC(=O)OC [Compound No. 179, 3,4-Di-methoxycarbonyloxy-2,5-dibenzyloxycarbonylthiophene]
- Control value [7]: 100%
- Degree of phytotoxicity ([9]; Table 7, spray liquid 500 ppm): 0

Structure (SMILES): CCOCCOC(=O)c1sc(C(=O)OCCOCC)c(OC(=O)NC)c1OC(=O)NC [Compound No. 161, 3,4-Di-methylcarbamoyloxy-2,5-di-2'-ethoxyethoxycarbonylthiophene]
- Degree of phytotoxicity ([1]; in vivo): 0
- Control value [2]: 100%

Structure (SMILES): CCOC(=O)c1sc(C#N)c(O)c1O [compound 211]
- Control value [7]: 100%
- Degree of phytotoxicity ([9]; Table 7, spray liquid 500 ppm): 0

Structure (SMILES): COC(=O)NC(=S)Nc1ccccc1NC(=S)NC(=O)OC [Thiophanate-methyl, reference compound]
- Control value [6]: 70%

Structure (SMILES): CCOCCOC(=O)c1sc(C(=O)OCCOCC)c(O)c1O [Compound No. 159, 3,4-Dihydroxy-2,5-di-2'-ethoxyethoxycarbonyl-thiophene]
- Control value (Phytophthora infestans; in vivo): 99%
- Degree of phytotoxicity ([1]; in vivo): 0
- Degree of phytotoxicity ([8]; in vivo): 0
- Control value [2]: 96%
